Columns and labels:
IRE1a [1] = target: T1, IRE1a (Homo sapiens, UniProt O75460); experiment: IRE1a Endoribonuclease Nanoluciferase Assay (XBP1 luciferase reporter in 293T cells); assay type: cell-based; design: endogenous in cells; host or cells: 293T; settings: XBP1 nanoluciferase reporter in 293T cells, ER stressor; tested as the salt named
IRE1a [2] = target: T1, IRE1a; experiment: In vitro FRET assay (IRE1a cleavage of XBP1 RNA probe); assay type: biochemical; design: purchased SignalChem; settings: IRE1a 2 nM, tested as the salt named
Protocol: Selected compounds were serially diluted with DMSO in a non-binding black 384-well plate for a total of 15 ul in each well. 2 ul of the serially diluted compound or DMSO control were then added to new wells containing 98 ul of 1×CAB, for a total volume of 100 ul, 10 ul of which were then transferred to wells of a new plate. 5 ul of the diluted IRE1a was then added to each well. 5 ul of a […] XBP1 RNA probe was then added to each well.
Each probe contained a 5′ 6-FAM modification and a 3′ IOWA Black FQ modification.
A second FRET assay was performed to assess ATP-mediated inhibition. In this case, compounds and IRE1a were prepared and combined as discussed above, with the addition of ATP up to 1 mM final concentration. This mixture was incubated at room temperature for 60 minutes and then 5 ul of 400 nM XBP1 wildtype or mutant RNA probe was added.

293T cells = experiment: Growth assay (cytotoxicity); assay type: cell-based, human; settings: 2 day incubation
Protocol: A growth assay was performed to evaluate the compounds disclosed herein for cytotoxicity. […] 133.3 uL cDMEM was added to wells 1, 2, 3, 5, 6, and 7 in rows A, C, E and G of the dilution plate. Compounds were serially diluted leftwards in threefold dilutions (66.7 uL into 133.3 uL cDMEM). 20 μL of each dilution was transferred in duplicate (duplicates in vertical paired wells) to the cells plated in the 96-well plate shown in Table 5, to the total concentrations shown below. 200 uL cDMEM was added to media wells (wells G5-H8). The plate was then placed in a humidified chamber for a 2 day incubation, and then photographed (media was more yellow in wells with potent cell growth).

[3] = Bioavailability assay (mouse pharmacokinetic study); assay type: in vivo; settings: IV 1 mg/kg, PO 30 mg/kg (Compound A PO 10 mg/kg)
[4] = Metabolic assays of N,N-dimethyl compounds; assay type: in vitro ADME; settings: data not shown
[5] = test system: IRE1a-mediated XBP1 splicing; experiment: Assay for target engagement in pancreas and salivary gland (RT-qPCR of XBP1 splicing); assay type: in vivo; settings: mice, 30 mg/kg oral gavage, 6 hours, compared to control and Compound B
Protocol: Mice (n=3 per group) were orally gavaged with 30 mg/kg vehicle control or IRE1 inhibitors dissolved in H2O. After 6 hours, mice were euthanized and pancreas and salivary gland tissues were isolated, snap frozen on dry ice, and used for subsequent RT-qPCR analysis of beta-actin, XBP1s and total XBP1. Gene expression was evaluated by quantitative PCR for XBP1s and total XBP1 transcripts using the 2^(−ΔCT) method for calculating normalized gene expression. Gene expression levels were normalized to Actb transcripts. XBP1 splicing is calculated as XBP1s expression divided by total XBP1 expression.

IRE1a/XBP1 pathway = experiment: Assay for inhibition of endogenous XBP1 splicing in 293T cells with tunicamycin; assay type: cell-based, human; settings: XBP1 splicing by qPCR
Protocol: Gene expression was evaluated by quantitative PCR for XBP1s and total XBP1 transcripts using the 2^(−ΔCT) method for calculating normalized gene expression. Gene expression levels were normalized to ACTB transcripts. XBP1 splicing was calculated as actin-normalized XBP1s expression divided by actin-normalized total XBP1 expression.

IRE1a [6] = target: T1, IRE1a; experiment: IRE1a phosphorylation inhibition assay (immunoblot, tunicamycin-treated 293T cells); assay type: cell-based; design: endogenous in cells; host or cells: 293T; settings: human 293T cells
Protocol: Inhibition of ER stress-induced IRE1a phosphorylation and XBP1s protein accumulation in human 293T cells was assessed. Immunoblot analysis was performed in human 293T cells lysates obtained from cells after exposure to the chemical ER stress-inducing agent tunicamycin, and optional treatment with Compound C. Lysates were probed with antibodies recognizing IRE1a, phosphorylated IRE1a, XBP1, or TATA-binding protein (TBP). TBP was blotted as a protein loading control. […] 20 nM was sufficient to reduce XBP1s protein levels below the limit of detection in this assay.

T1 sequence (O75460 19-977): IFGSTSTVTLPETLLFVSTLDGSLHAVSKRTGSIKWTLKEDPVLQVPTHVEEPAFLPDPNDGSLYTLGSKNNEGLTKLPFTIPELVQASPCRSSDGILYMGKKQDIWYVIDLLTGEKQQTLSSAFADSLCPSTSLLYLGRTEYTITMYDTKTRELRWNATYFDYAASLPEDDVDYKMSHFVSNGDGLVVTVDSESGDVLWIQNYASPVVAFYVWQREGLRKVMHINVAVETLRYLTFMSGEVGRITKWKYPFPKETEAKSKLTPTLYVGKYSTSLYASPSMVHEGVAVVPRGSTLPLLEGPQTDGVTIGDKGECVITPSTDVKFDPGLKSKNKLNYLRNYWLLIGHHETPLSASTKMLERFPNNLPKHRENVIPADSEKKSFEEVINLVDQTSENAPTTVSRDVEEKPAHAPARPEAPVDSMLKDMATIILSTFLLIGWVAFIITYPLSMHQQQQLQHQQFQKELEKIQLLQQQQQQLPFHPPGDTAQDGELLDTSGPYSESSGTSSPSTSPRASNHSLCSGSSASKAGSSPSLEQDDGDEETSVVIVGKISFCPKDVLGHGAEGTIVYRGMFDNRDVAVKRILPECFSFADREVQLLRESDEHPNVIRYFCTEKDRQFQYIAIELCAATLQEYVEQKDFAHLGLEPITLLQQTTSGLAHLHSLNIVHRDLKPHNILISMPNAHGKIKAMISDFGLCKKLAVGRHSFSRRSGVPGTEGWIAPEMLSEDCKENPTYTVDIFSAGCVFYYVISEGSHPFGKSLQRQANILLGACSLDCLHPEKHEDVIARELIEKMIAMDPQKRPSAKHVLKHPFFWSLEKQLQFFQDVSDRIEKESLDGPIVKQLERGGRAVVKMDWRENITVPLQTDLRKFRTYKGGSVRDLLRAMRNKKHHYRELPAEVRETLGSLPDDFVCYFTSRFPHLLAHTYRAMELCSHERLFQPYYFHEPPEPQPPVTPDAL

SMILES | EC50 (IRE1a [1]) [nM] | IC50 (IRE1a [2]) [nM] | other results
CCc1cc(-c2cnc(NS(=O)(=O)c3ccccc3Cl)cn2)cc2cnc(N[C@H]3CC[C@H](N)CC3)nc12 [Compound 25, N-(5-(2-(((1r,4r)-4-aminocyclohexyl)amino)-8-ethylquinazolin-6-yl)pyrazin-2-yl)-2-chlorobenzene-sulfonamide] | < 5 | < 5 | % Growth at 0.185 uM (293T cells; 0.185 uM): D (D: > 75% to ≤ 100%); % Growth at 0.5556 uM (293T cells): D (D: > 75% to ≤ 100%); % Growth at 1.667 uM (293T cells): D (D: > 75% to ≤ 100%); % Growth at 5 uM (293T cells): D (D: > 75% to ≤ 100%)
CCc1cc(-c2cnc(NS(=O)(=O)c3ccccc3Cl)nc2OC)cc2cnc(NC3CCC(N(C)C)CC3)nc12 (centres unmarked) [Compound 154, 2-chloro-N-(5-(2-(((1r,4r)-4-(dimethylamino)cyclohexyl)amino)-8-ethylquinazolin-6-yl)-4-methoxypyrimidin-2-yl)benzenesulfonamide] | < 5 | – | –
CCc1cc(-c2ncc(NS(=O)(=O)c3ccccc3Cl)nc2OC)cc2cnc(N[C@H]3CC[C@H](N(C)C)CC3)nc12 [Compound 157, 2-chloro-N-(5-(2-(((1r,4r)-4-(dimethylamino)cyclohexyl)amino)-8-ethylquinazolin-6-yl)-6-methoxypyrazin-2-yl)benzenesulfonamide] | < 5 | – | –
CCc1cc(-c2ccc(NS(=O)(=O)c3cccc(F)c3Cl)nc2C)cc2cnc(N[C@H]3CC[C@H](N(C)C)CC3)nc12 [Compound 158, 2-chloro-N-(5-(2-(((1r,4r)-4-(dimethylamino)cyclohexyl)amino)-8-ethylquinazolin-6-yl)-6-methylpyridin-2-yl)-3-fluorobenzenesulfonamide] | < 5 | – | –
CCc1cc(-c2nnc(NS(=O)(=O)c3ccccc3Cl)cc2OC)cc2cnc(N[C@H]3CC[C@H](N(C)C)CC3)nc12 [Compound 159, 2-chloro-N-(6-(2-(((1r,4r)-4-(dimethylamino)cyclohexyl)amino)-8-ethylquinazolin-6-yl)-5-methoxypyridazin-3-yl)benzenesulfonamide] | 5 to 50 | – | –
CCc1cc(-c2ccc(NS(=O)(=O)c3cccc(C)c3Cl)nc2C)cc2cnc(N[C@H]3CC[C@H](N(C)C)CC3)nc12 [Compound 160, 2-chloro-N-(5-(2-(((1r,4r)-4-(dimethylamino)cyclohexyl)amino)-8-ethylquinazolin-6-yl)-6-methylpyridin-2-yl)-3-methylbenzenesulfonamide] | < 5 | – | –
CCc1c(F)c(-c2ccc(NS(=O)(=O)c3ccccc3Cl)nc2C)cc2cnc(N[C@H]3CC[C@H](N(C)C)CC3)nc12 [Compound 161, 2-chloro-N-(5-(2-(((1r,4r)-4-(dimethylamino)cyclohexyl)amino)-8-ethyl-7-fluoroquinazolin-6-yl)-6-methylpyridin-2-yl)benzenesulfonamide] | < 5 | – | –
CCc1c(F)c(-c2cc(F)c(NS(=O)(=O)c3ccccc3Cl)nc2C)cc2cnc(N[C@H]3CC[C@H](N(C)C)CC3)nc12 [Compound 162, 2-chloro-N-(5-(2-(((1r,4r)-4-(dimethylamino)cyclohexyl)amino)-8-ethyl-7-fluoroquinazolin-6-yl)-3-fluoro-6-methylpyridin-2-yl)benzenesulfonamide] | < 5 | – | –
CCc1c(F)c(-c2cc(F)c(NS(=O)(=O)c3ccccc3Cl)nc2OC)cc2cnc(N[C@H]3CC[C@H](N(C)C)CC3)nc12 [Compound 163, 2-chloro-N-(5-(2-(((1r,4r)-4-(dimethylamino)cyclohexyl)amino)-8-ethyl-7-fluoroquinazolin-6-yl)-3-fluoro-6-methoxypyridin-2-yl)benzenesulfonamide] | < 5 | – | –
CCc1cc(-c2ccc(NS(=O)(=O)c3ccccc3Cl)nc2C)cc2cnc(N[C@H]3CC[C@H](N)CC3)nc12 [Compound A, N-(5-(2-(((1r,4r)-4-aminocyclohexyl)amino)-8-ethylquinazolin-6-yl)-6-methylpyridin-2-yl)-2-chlorobenzenesulfonamide] | – | – | oral bioavailability [3]: 4%
CCc1cc(-c2ccc(NS(=O)(=O)c3ccccc3Cl)nc2C)cc2cnc(NC3CCC(N(C)C)CC3)nc12 (centres unmarked) [Compound C] | – | – | metabolic fate [4]: removal of the methyl groups; suppression of IRE1a-mediated XBP1 splicing in pancreas and salivary gland [5]: potently suppressed; shift in potency between Compound A and Compound C (IRE1a/XBP1 pathway): approximately 3.6 ×; concentration sufficient to reduce XBP1s protein levels below the limit of detection (IRE1a [6]): 20 nM; ER stress-induced IRE1a phosphorylation (IRE1a [6]; pre-incubation with compound): strongly repressed; accumulation of XBP1s protein (IRE1a [6]; pre-incubation with compound): completely abrogated
CCc1cc(-c2ccc(NS(=O)(=O)c3ccccc3Cl)nc2OC)cc2cnc(NC3CCC(N(C)C)CC3)nc12 (centres unmarked) [Compound D] | – | – | metabolic fate [4]: removal of the methyl groups; suppression of IRE1a-mediated XBP1 splicing in pancreas and salivary gland [5]: potently suppressed

Continued, in another order:

EC50 (IRE1a [1]) [nM] | IC50 (IRE1a [2]) [nM] | SMILES | other results
< 5 | – | CCc1cc(-c2ccc(NS(=O)(=O)c3ccccc3Cl)nc2OC)cc2cnc(N[C@H]3CC[C@H](N)CC3)nc12 [Compound 37, N-(5-(2-(((1r,4r)-4-aminocyclohexyl)amino)-8-ethylquinazolin-6-yl)-6-methoxypyridin-2-yl)-2-chlorobenzene-sulfonamide] | % Growth at 0.5556 uM (293T cells): D (D: > 75% to ≤ 100%); % Growth at 1.667 uM (293T cells): C (C: > 50% to ≤ 75%); % Growth at 5 uM (293T cells): B (B: > 25% to ≤ 50%)
< 5 | 5 to 50 | CCc1cc(-c2ccc(NS(=O)(=O)c3ccccc3Cl)c(F)c2)cc2cnc(N[C@H]3CC[C@H](NC(=O)[C@@H](N)C(C)C)CC3)nc12 [Compound 58, (S)-2-amino-N-((1r,4S)-4-((6-(4-((2-chlorophenyl)sulfonamido)-3-fluorophenyl)-8-ethylquinazolin-2-yl)amino)cyclohexyl)-3-methylbutanamide] | –
< 5 | < 5 | CCc1cc(-c2ccc(NS(=O)(=O)c3ccccc3Cl)c(F)c2)cc2cnc(N[C@@H]3CC[C@H](N)[C@H](C)C3)nc12 [Compound 70, N-(4-(2-(((1R,3R,4S)-4-amino-3-methylcyclohexyl)amino)-8-ethylquinazolin-6-yl)-2-fluorophenyl)-2-chlorobenzene-sulfonamide] | –
< 5 | < 5 | CCc1cc(-c2ccc(NS(=O)(=O)c3ccccc3Cl)c(F)c2)cc2cnc(N[C@H]3CCCNC3)nc12 [Compound 73, (S)-2-chloro-N-(4-(8-ethyl-2-(piperidin-3-ylamino)quinazolin-6-yl)-2-fluorophenyl) benzene-sulfonamide] | –
100 to 10000 | < 5 | N[C@H]1CC[C@@H](Nc2ncc3cc(-c4ccc(NS(=O)(=O)c5ccccc5Cl)c(F)c4)ccc3n2)C1 [Compound 80] | –
< 5 | < 5 | CCc1cc(-c2ccc(NS(=O)(=O)c3ccccc3Cl)nc2C)cc2cnc(N[C@H]3CC[C@H](N(C)C)CC3)nc12 [Compound 91, 2-chloro-N-(5-(2-(((1r,4r)-4-(dimethylamino)cyclohexyl)amino)-8-ethylquinazolin-6-yl)-6-methylpyridin-2-yl)benzenesulfonamide] | –
50 to 100 | – | COc1nc(NS(=O)(=O)c2ccccc2Cl)c(F)cc1-c1cc(F)c2nc(N[C@H]3CC[C@H](N(C)C)CC3)ncc2c1 [Compound 155, 2-chloro-N-(5-(2-(((1r,4r)-4-(dimethylamino)cyclohexyl)amino)-8-fluoroquinazolin-6-yl)-3-fluoro-6-methoxypyridin-2-yl)benzenesulfonamide] | –
